Values of other authors, collected in patent US20190070157A1, “HYPERBARIC SOLUTION INJECTION OF LEVOBUPIVACAINE HYDROCHLORIDE COMPRISING LEVOBUPIVACAINE HYDROCHLORIDE” (NEON LABORATORIES LIMITED, priority 2015, published 2019).

Conditions: animal studies, compared with bupivacaine

Structure (SMILES): CCCCN1CCCC[C@H]1C(=O)Nc1c(C)cccc1C [Levobupivacaine]
- risk of cardiovascular and CNS toxicity: lower risk of cardiovascular and CNS toxicity than bupivacaine
